Assays:
[1] = Hydrate formation when precipitated from water; format: physicochemical
From the text: Crystals used in the present invention may exist as solvates, i.e. crystals wherein solvent molecules form part of the crystal structure. The solvate may be formed from water, in which case the solvates are often referred to as hydrates. Alternatively, the solvates may be formed from other solvents, such as e.g. ethanol, acetone, or ethyl acetate. The exact amount of solvate often depends on the conditions. For instance, hydrates will typically loose water as the temperature is increased or as the relative humidity is decreased.

[2] = Solubility of salts in water with pH of the saturated solution and identity of the precipitate
[3] = test system: Spontaneously hypertensive rats (SHR); experiment: Spontaneously hypertensive rats, animal model of ADHD: operant task with delayed food-reward and circadian activity recording; format: in vivo, rat
Protocol: Core symptoms of ADHD are attention deficit, hyperactivity and increased impulsiveness. Spontaneously hypertensive rats (SHR) were used as animal model for attention deficit hyperactivity disorder (ADHD), Wistar Kyoto rats (the root strain of SHR) served as controls [Biol. Psychiatry. 57, 1239-47, 2005]. To assess these symptoms, an operant task involving a delayed food-reward was used to measure attention- and impulsiveness-related parameters. Attention deficits were measured as increase in the number of lever presses on the wrong side. Impulsiveness was measured as lever presses and reward chamber inspections during the OFF state in test sessions without delayed reward and during the delay interval in the test sessions with delayed rewarding. Hyperactivity was monitored by circadian recording in infra-red cages.
Methods: Operant testing was performed in 20 hours sessions, each in operant behaviour cages with two levers and adjacent reward chambers on the right and left side of the lever panel. The animals had access to food only via lever presses, and fluid was freely available. Training and testing consisted of the following phases:
• (1) Both levers were continuously active (indicated by a signal light). […] The signal light on the correct side indicated the state of the lever (ON or OFF).
• (1) Like Acquisition (3) • (2) Like (1), except that after a lever press of an active lever, the reward was not presented immediately, but after a delay interval of 5 seconds.

[4] = test system: extracellular levels of acetylcholine; experiment: Microdialysis, extracellular acetylcholine in prefrontal cortex of freely-moving Wistar rats (Example 2F); format: in vivo, rat; conditions: s.c.
Protocol: Male Wistar rats (280-350 g; Harlan, Zeist, The Netherlands) were used for the experiments. Rats were individually housed in plastic cages (30×30×40 cm) and had ad libitum access to food and water.
Rats were anesthetized using isoflurane (2%, 400 mL/min N2O, 400 ml/min O2). Lidocain (10% m/v) was used for local anesthesia. Each animal was placed into a stereotaxic frame (Kopf instruments, USA), and home-made I-shaped probes (Hospal AN 69 membrane, 4 mm exposed surface) were inserted into the medial prefrontal cortex (mPFC) using the rat brain atlas of Paxinos and Watson (1982). Coordinates for the tip of the probe was mPFC [AP=3.4 mm, L=−0.8 mm, V=5.0 mm]. The probe was then fixed to the skull with dental cement and a srew. Flunixin (1 mg/kg s.c.) was administered as post-operative analgesic.
Experiments were carried out 24-48 hours after surgery. […] Samples were collected by an automated fraction collector (CMA 142), and stored at −80° C. until analyzed. […]
Concentrations of acetylcholine were determined by HPLC with tandem mass spectrometry (MS/MS) detection. […]
The LC/MS analyses were performed using a API 4000 MS/MS system consisting of a API 4000 MS/MS detector and a Turbo Ion Spray interface (both from Applied Biosystems, the Netherlands). […] Data were calibrated and quantitated using the Analyst™ data system (Applied Biosystem, version 1.2). […]

NET = molecular target: T1, NET (Rattus norvegicus, UniProt Q9WTR4); experiment: Norepinephrine (NE) reuptake inhibition, rat cortical synaptosomes, [3H]NE; format: biochemical; conditions: [3H]NE 10 nM
T1 construct: rat cortical synaptosome preparation; from tissue; host or cells: rat cortical synaptosomes
Protocol: Non-specific uptake was determined in the presence of 10 μM talsupram or citalopram and the total uptake was determined in the presence of buffer. Aliquots were incubated for 15 minutes at 37° C. […] Filters were washed and counted in a Wallac MicroBeta counter.

[5] = test system: extracellular levels of acetylcholine; experiment: Microdialysis, extracellular acetylcholine in prefrontal cortex and ventral hippocampus of Sprague-Dawley rats (Example 2G); format: in vivo, rat
Protocol: Male Sprague-Dawley rats, initially weighing 275-300 g, were used. The animals were housed under a 12-hr light/dark cycle under controlled conditions for regular in-door temperature (21±2° C.) and humidity (55±5%) with food and tap water available ad libitum.
Rats were anaesthetised with hypnorm/dormicum (2 ml/kg) and intracerebral guide cannulas (CMA/12) were stereotaxically implanted into the hippocampus, aiming to position the dialysis probe tip in the ventral hippocampus (co-ordinates: 5,6 mm posterior to bregma, lateral −5,0 mm, 7,0 mm ventral to dura or in the frontal cortex (co-ordinates: 3,2 mm anterior to bregma; lateral, 0,8 mm; 4,0 mm ventral to dura). Anchor screws and acrylic cement were used for fixation of the guide cannulas. The body temperature of the animals was monitored by rectal probe and maintained at 37° C. The rats were allowed to recover from surgery for 2 days, housed singly in cages. […]
Concentration of acetylcholine (ACh) in the dialysates was analysed by means of HPLC with electrochemical detection using a mobile phase consisting of 100 mM disodium hydrogenphosphate, 2.0 mM octane sulfonic acid, 0.5 mM tetramethyl-ammonium chloride and 0.005% MB (ESA), pH 8.0. […] The latter was detected electrochemical by using a platinum electrode (Analytical cell: ESA, model 5040). […]

[6] = molecular target: T2, human alpha1A-7 receptors (Homo sapiens, UniProt P35348); experiment: Antagonism of adrenaline evoked release of Ca2+ in CHO cells expressing human alpha1A-7 receptors (FLIPR); format: cell-based; conditions: functional assay
T2 construct: expressed in transfected cells; host or cells: CHO cells
T2 sequence (P35348 1-466): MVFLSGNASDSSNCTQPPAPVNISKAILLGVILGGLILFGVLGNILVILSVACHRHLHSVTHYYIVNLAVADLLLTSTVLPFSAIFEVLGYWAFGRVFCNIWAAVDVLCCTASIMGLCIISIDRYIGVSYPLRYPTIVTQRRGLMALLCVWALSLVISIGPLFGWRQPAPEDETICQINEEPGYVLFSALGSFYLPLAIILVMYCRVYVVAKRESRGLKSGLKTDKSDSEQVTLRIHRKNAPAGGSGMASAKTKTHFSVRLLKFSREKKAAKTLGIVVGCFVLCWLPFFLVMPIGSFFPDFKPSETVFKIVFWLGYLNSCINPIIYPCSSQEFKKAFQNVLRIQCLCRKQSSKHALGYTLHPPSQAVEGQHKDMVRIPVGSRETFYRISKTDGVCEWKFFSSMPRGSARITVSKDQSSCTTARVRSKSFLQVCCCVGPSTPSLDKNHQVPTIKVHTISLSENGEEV
Protocol: These experiments were carried out essentially as described below. All cells were cultured in DMEM medium supplemented with 10% BCS, 4 mM L-glutamine (or 2 mM in the case of COS-7), and 100 units/ml penicillin plus 100 μg/ml streptomycin, at 37° C., in 5% CO2. Twenty-four hours prior to assays, CHO cells expressing the human alpha1A-7 receptors were seeded into 384-well black wall microtiter plates coated with poly-D-lysine. […] After excess dye was discarded, cells were washed in assay buffer and layered with a final volume equal to 45 μl/well (or 30 ul/well for antagonist assay). […] Basal fluorescence was monitored in a fluorometric imaging plate reader or FLIPR™ from Molecular Devices (Sunnyvale, Calif.) with an excitation wavelength of 488 nm and an emission range of 500 to 560 nm. Laser excitation energy was adjusted so that basal fluorescence readings were approximately 8,000 relative fluorescent units (RFU). Cells were then stimulated at room temperature with agonists diluted in assay buffer (15 μl), and RFU were measured at 1.5 second intervals over a period of 2.5 min. Maximum change in fluorescence was calculated for each well. Concentration-response curves derived from the maximum change in fluorescence were analyzed by nonlinear regression (Hill equation).

[7] = SHR, methylphenidate 2 and 5 mg/kg i.p. intermittent, ~10 mg/kg/day chronic via drinking water
[8] = SHR rats, 5 and 10 mg/kg i.p., injected 30 min before testing

T1 sequence (Q9WTR4 1-597): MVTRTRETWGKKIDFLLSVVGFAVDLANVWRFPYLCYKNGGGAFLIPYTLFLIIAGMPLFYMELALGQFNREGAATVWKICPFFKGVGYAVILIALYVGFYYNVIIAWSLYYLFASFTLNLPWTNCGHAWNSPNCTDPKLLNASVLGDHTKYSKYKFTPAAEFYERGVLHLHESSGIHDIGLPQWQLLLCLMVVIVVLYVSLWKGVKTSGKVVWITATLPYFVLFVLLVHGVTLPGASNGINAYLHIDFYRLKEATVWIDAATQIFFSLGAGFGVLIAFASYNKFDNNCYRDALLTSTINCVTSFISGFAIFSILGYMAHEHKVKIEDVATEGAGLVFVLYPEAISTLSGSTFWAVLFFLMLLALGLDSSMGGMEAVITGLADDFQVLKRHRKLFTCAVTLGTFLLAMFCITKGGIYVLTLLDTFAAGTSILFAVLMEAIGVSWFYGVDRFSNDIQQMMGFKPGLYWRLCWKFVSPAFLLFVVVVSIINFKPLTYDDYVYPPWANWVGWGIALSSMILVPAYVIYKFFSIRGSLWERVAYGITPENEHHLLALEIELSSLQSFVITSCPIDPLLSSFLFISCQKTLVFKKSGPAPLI

Compound: Cc1ccc(Sc2ccccc2C2CCNCC2)cc1
- formation of hydrates [1]: do

Compound: O=C(O)CCCC(=O)O [Glutaric acid, 1,5-pentanedioic acid 1:1]
- Resulting pH ([2]; pH in the saturated solution of the salt in water): 4.6
- Precipitate ([2]; whether precipitate isolated after the solubility determination is identical to the compound dissolved, indicative of hydrate formation): =start

Compound: Br.Cc1ccc(Sc2ccccc2C2CCNCC2)cc1 [HBr, 4-(2-p-Tolylsulfanyl-phenyl)-piperidine hydrobromide]
- formation of hydrates [1]: does not form hydrates

Compound: COC(=O)C(c1ccccc1)C1CCCCN1 (centres unmarked) [Methylphenidate, reference compound]
- attention deficit [3, 7]: no reduction
- impulsiveness [3, 7]: no reduction
- time course of activity ([3]; chronic administration via drinking water, ~10 mg/kg/day): did not alter
- hyperactivity of SHR ([3]; intermittent administration, 2 and 5 mg/kg i.p., effect lasted a few hours): markedly and dose-dependently aggravated

Compound: O=C(O)CCC(=O)O [Succinic acid, 1,4-butanedioic acid, 2:1]
- formation of hydrates [1]: do

Compound: Cc1ccc(Sc2ccccc2C2CCNCC2)cc1 [compound I, 4-[2-(4-methylphenylsulfanyl)-phenyl]piperidine]
- extracellular level of acetylcholine [4]: increase
- IC50 (NET): 23 nM
- acquisition of the task or general motivation of food seeking ([3]; SHR rats, 5 and 10 mg/kg i.p.): did not affect
- attention deficits [3, 8]: reduced
- impulsiveness [3, 8]: reduced
- hyperactivity - locomotor activity ([3]; SHR rats, 5 and 10 mg/kg i.p., circadian activity monitoring, for 1 hour without prolonged effects): dose-dependently depressed
- extracellular level of acetylcholine [5]: increase
- adrenaline evoked release of Ca2+ from intracellular stores [6]: antagonises

Source: patent publication US20100144788A1 (priority 2007, published 2010)
